Data: PubChem BioAssay (NCI)
Where “and” joins values, the source holds several entries; their conditions need not be identical. Equal values may be shown once.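 These data come from cells grown in 96-well plates and exposed to compound for 48 hours at five concentrations. GI50 is the concentration that inhibits growth by half. TGI: total growth inhibition.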

Legend:
Assay in all cases: NCI anticancer screen, dose series, 48 h
NCI/ADR-RES ovarian = system: NCI/ADR-RES ovarian
NCI-H226 lung = system: NCI-H226 lung
HS 578T breast = system: HS 578T breast
MDA-MB-435 = system: MDA-MB-435
SW-620 colon = system: SW-620 colon
SK-MEL-28 melanoma = system: SK-MEL-28 melanoma
HCT-116 colon = system: HCT-116 colon
DU-145 prostate = system: DU-145 prostate
IGROV1 ovarian = system: IGROV1 ovarian
SF-539 CNS = system: SF-539 CNS
K-562 leukemia = system: K-562 leukemia
HL-60(TB) leukemia = system: HL-60(TB) leukemia
HOP-62 NSCLC = system: HOP-62 NSCLC
RPMI-8226 leukemia = system: RPMI-8226 leukemia
CAKI-1 renal = system: CAKI-1 renal
OVCAR-4 ovarian = system: OVCAR-4 ovarian
CCRF-CEM leukemia = system: CCRF-CEM leukemia
NCI-H23 lung = system: NCI-H23 lung
SNB-19 CNS = system: SNB-19 CNS
M14 melanoma = system: M14 melanoma
LOX IMVI melanoma = system: LOX IMVI melanoma
ACHN renal = system: ACHN renal
HOP-92 NSCLC = system: HOP-92 NSCLC
T-47D breast = system: T-47D breast
HT29 colon = system: HT29 colon
OVCAR-3 ovarian = system: OVCAR-3 ovarian
NCI-H522 lung = system: NCI-H522 lung
U251 CNS = system: U251 CNS
MOLT-4 leukemia = system: MOLT-4 leukemia
SR leukemia = system: SR leukemia
786-0 renal = system: 786-0 renal
SF-295 CNS = system: SF-295 CNS
UACC-62 melanoma = system: UACC-62 melanoma
TK-10 renal = system: TK-10 renal
UACC-257 melanoma = system: UACC-257 melanoma
UO-31 renal = system: UO-31 renal
MCF7 breast = system: MCF7 breast
SNB-75 CNS = system: SNB-75 CNS
SF-268 CNS = system: SF-268 CNS
BT-549 breast = system: BT-549 breast
A549 NSCLC = system: A549 NSCLC
NCI-H460 lung = system: NCI-H460 lung
PC-3 prostate = system: PC-3 prostate
SK-MEL-5 melanoma = system: SK-MEL-5 melanoma
MALME-3M melanoma = system: MALME-3M melanoma
SN12C renal = system: SN12C renal
MDA-N = system: MDA-N
OVCAR-5 ovarian = system: OVCAR-5 ovarian
OVCAR-8 ovarian = system: OVCAR-8 ovarian
MDA-MB-231 breast = system: MDA-MB-231 breast
A498 renal = system: A498 renal
EKVX NSCLC = system: EKVX NSCLC
HCT-15 colon = system: HCT-15 colon
KM12 colon = system: KM12 colon
SK-OV-3 ovarian = system: SK-OV-3 ovarian
HCC-2998 colon = system: HCC-2998 colon
COLO 205 colon = system: COLO 205 colon
SK-MEL-2 melanoma = system: SK-MEL-2 melanoma

Compound: COc1ccc2c(c1OC)CN1CCc3cc4c(cc3C1C2)OCO4 (configuration not stated)
- TGI (NCI/ADR-RES ovarian): > 100 µM
- TGI (NCI-H226 lung): > 100 µM
- TGI (HS 578T breast): > 100 µM
- TGI (MDA-MB-435): > 100 µM
- TGI (SW-620 colon): > 100 µM
- TGI (SK-MEL-28 melanoma): > 100 µM
- TGI (HCT-116 colon): > 100 µM
- TGI (DU-145 prostate): > 100 µM
- TGI (IGROV1 ovarian): > 100 µM
- TGI (SF-539 CNS): > 100 µM
- TGI (K-562 leukemia): > 100 µM
- TGI (HL-60(TB) leukemia): > 100 µM
- TGI (HOP-62 NSCLC): > 100 µM
- TGI (RPMI-8226 leukemia): > 100 µM
- TGI (CAKI-1 renal): > 100 µM
- TGI (OVCAR-4 ovarian): > 100 µM
- GI50 (CCRF-CEM leukemia): > 100 µM
- TGI (CCRF-CEM leukemia): > 100 µM
- TGI (NCI-H23 lung): > 100 µM
- TGI (SNB-19 CNS): > 100 µM
- TGI (M14 melanoma): > 100 µM
- TGI (LOX IMVI melanoma): > 100 µM
- TGI (ACHN renal): > 100 µM
- TGI (HOP-92 NSCLC): > 100 µM
- TGI (T-47D breast): > 100 µM
- GI50 (HT29 colon): 30.8 µM and 76.1 µM
- TGI (HT29 colon): > 100 µM
- TGI (OVCAR-3 ovarian): > 100 µM
- TGI (NCI-H522 lung): > 100 µM
- TGI (U251 CNS): > 100 µM
- TGI (MOLT-4 leukemia): > 100 µM
- TGI (SR leukemia): > 100 µM
- TGI (786-0 renal): > 100 µM
- TGI (SF-295 CNS): > 100 µM
- TGI (UACC-62 melanoma): > 100 µM
- TGI (TK-10 renal): > 100 µM
- TGI (UACC-257 melanoma): > 100 µM
- TGI (UO-31 renal): > 100 µM
- TGI (MCF7 breast): > 100 µM
- TGI (SNB-75 CNS): > 100 µM
- TGI (SF-268 CNS): > 100 µM
- TGI (BT-549 breast): > 100 µM
- TGI (A549 NSCLC): > 100 µM
- TGI (NCI-H460 lung): > 100 µM
- TGI (PC-3 prostate): > 100 µM
- TGI (SK-MEL-5 melanoma): > 100 µM
- TGI (MALME-3M melanoma): > 100 µM
- TGI (SN12C renal): > 100 µM
- TGI (MDA-N): > 100 µM
- TGI (OVCAR-5 ovarian): > 100 µM
- TGI (OVCAR-8 ovarian): > 100 µM
- TGI (MDA-MB-231 breast): > 100 µM
- TGI (A498 renal): > 100 µM
- TGI (EKVX NSCLC): > 100 µM
- TGI (HCT-15 colon): > 100 µM
- TGI (KM12 colon): > 100 µM
- TGI (SK-OV-3 ovarian): > 100 µM
- TGI (HCC-2998 colon): > 100 µM
- TGI (COLO 205 colon): > 100 µM
- TGI (SK-MEL-2 melanoma): > 100 µM

Compound: O=C(O)/C=N/NC(=S)NC1CCCCC1
- TGI (NCI/ADR-RES ovarian): > 100 µM
- TGI (NCI-H226 lung): > 100 µM
- TGI (HS 578T breast): > 100 µM
- TGI (MDA-MB-435): > 100 µM
- TGI (SW-620 colon): > 100 µM
- TGI (SK-MEL-28 melanoma): > 100 µM
- TGI (HCT-116 colon): > 100 µM
- TGI (DU-145 prostate): > 100 µM
- TGI (IGROV1 ovarian): > 100 µM
- TGI (SF-539 CNS): > 100 µM
- TGI (K-562 leukemia): > 100 µM
- TGI (HL-60(TB) leukemia): > 100 µM
- TGI (HOP-62 NSCLC): > 100 µM
- TGI (RPMI-8226 leukemia): > 100 µM
- TGI (CAKI-1 renal): > 100 µM
- TGI (OVCAR-4 ovarian): > 100 µM
- TGI (CCRF-CEM leukemia): > 100 µM
- TGI (NCI-H23 lung): > 100 µM
- TGI (SNB-19 CNS): > 100 µM
- TGI (M14 melanoma): > 100 µM
- TGI (LOX IMVI melanoma): > 100 µM
- TGI (ACHN renal): > 100 µM
- TGI (HOP-92 NSCLC): > 100 µM
- TGI (T-47D breast): > 100 µM
- TGI (HT29 colon): > 100 µM
- TGI (OVCAR-3 ovarian): > 100 µM
- TGI (NCI-H522 lung): > 100 µM
- TGI (U251 CNS): > 100 µM
- TGI (MOLT-4 leukemia): > 100 µM
- TGI (SR leukemia): > 100 µM
- TGI (786-0 renal): > 100 µM
- TGI (SF-295 CNS): > 100 µM
- TGI (UACC-62 melanoma): > 100 µM
- TGI (TK-10 renal): > 100 µM
- TGI (UACC-257 melanoma): > 100 µM
- TGI (UO-31 renal): > 100 µM
- TGI (MCF7 breast): > 100 µM
- TGI (SNB-75 CNS): > 100 µM
- TGI (BT-549 breast): > 100 µM
- TGI (A549 NSCLC): > 100 µM
- TGI (NCI-H460 lung): > 100 µM
- TGI (PC-3 prostate): > 100 µM
- TGI (SK-MEL-5 melanoma): > 100 µM
- TGI (MALME-3M melanoma): > 100 µM
- TGI (SN12C renal): > 100 µM
- TGI (MDA-N): > 100 µM
- TGI (OVCAR-5 ovarian): > 100 µM
- TGI (OVCAR-8 ovarian): > 100 µM
- TGI (MDA-MB-231 breast): > 100 µM
- TGI (A498 renal): > 100 µM
- TGI (EKVX NSCLC): > 100 µM
- TGI (HCT-15 colon): > 100 µM
- TGI (KM12 colon): > 100 µM
- TGI (SK-OV-3 ovarian): > 100 µM
- TGI (HCC-2998 colon): > 100 µM
- TGI (COLO 205 colon): > 100 µM
- TGI (SK-MEL-2 melanoma): > 100 µM
